PMC8842310 (Journal of Medicinal Chemistry, 2022)

System: CDI iCell cardiomyocytes
Conditions: geometric mean of the MEC values for beat period, Na+ slope, Na+ amplitude, field duration

With `CCNC(=N)NC(=O)Nc1c(CC)cc(NS(=O)(=O)c2ccccc2)cc1CC` [5n, N-(3,5-Diethyl-4-(3-(N-ethylcarbamimidoyl)ureido)phenyl)benzenesulfonamide] the “MEC Gmean cardiomyocytes” value was 8.9 µM.
